In US20240270821A1, “GIP/GLP1/GCG TRI-RECEPTOR AGONISTS AND USES THEREOF” (priority 2023, published 2024):
pEC50: −log10 of the molar value. Like-named read-outs stand apart in the source and are kept apart here. Starred links: 1 amine or outer side, 2 acyl side, 3 side chain; linkers in the order of their positions; H or OH if unused. Non-standard residues stand in square brackets, D forms with d. Residues, ends and D or L forms follow the SMILES beside them. Groups on a side chain read outwards from the residue. No end group written: not given here. *: point of attachment. C20 diacid = O=C(O)CCCCCCCCCCCCCCCCCCC(=O)*; C18 diacid = O=C(O)CCCCCCCCCCCCCCCCC(=O)*; αMePhe(2-F) = C[C@](N)(Cc1ccccc1F)C(=O)O; γGlu = O=C(O)[C@H](CCC(=O)[*:2])N[*:1]; αMe4Pal = C[C@](N)(Cc1ccncc1)C(=O)O; αMeY = C[C@](N)(Cc1ccc(O)cc1)C(=O)O; 4Pal = N[C@@H](Cc1ccncc1)C(=O)O; αMeL = CC(C)C[C@](C)(N)C(=O)O; αMeS = C[C@](N)(CO)C(=O)O; Orn = NCCC[C@H](N)C(=O)O; AEEA = NCCOCCOCC(=O)O; Aib = CC(C)(N)C(=O)O

Assays:
Type in all cases: cell-based
hGcgR = hGcgR (Homo sapiens, UniProt P47871); test: Functional cAMP activation in the presence of 0.1% casein (no HSA); conditions: read-out: Relative cAMP EC50, hGcgR;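 further: intracellular cAMP rise after 30 min at 37 °C, read by HTRF against a cAMP standard curve, scaled from buffer only (0%) to maximal control ligand response (100%)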
hGLP-1R [1] = target: T1, hGLP-1R (Homo sapiens, UniProt P43220); test: Functional cAMP activity in the presence of 1% HSA; conditions: read-out: cAMP Rel EC50, hGLP-1R
hGIPR [2] = target: T2, hGIPR (Homo sapiens, UniProt P48546); test: Functional cAMP activity in the presence of 1% HSA; conditions: read-out: cAMP Rel EC50, hGIPR
T2 sequence (P48546 22-466): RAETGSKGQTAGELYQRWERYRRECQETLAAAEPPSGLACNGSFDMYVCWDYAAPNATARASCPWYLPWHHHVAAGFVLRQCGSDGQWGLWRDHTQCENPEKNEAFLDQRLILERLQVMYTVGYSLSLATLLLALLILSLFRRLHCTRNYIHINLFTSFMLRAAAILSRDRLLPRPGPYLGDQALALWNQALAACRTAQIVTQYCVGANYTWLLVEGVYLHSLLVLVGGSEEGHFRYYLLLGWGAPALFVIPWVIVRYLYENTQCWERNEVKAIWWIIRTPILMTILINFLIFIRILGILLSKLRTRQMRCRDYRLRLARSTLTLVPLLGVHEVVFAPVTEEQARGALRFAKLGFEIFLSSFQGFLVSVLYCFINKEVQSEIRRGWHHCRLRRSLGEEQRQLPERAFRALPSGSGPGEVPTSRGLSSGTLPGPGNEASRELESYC

hGLP-1R [3] = target: T1, hGLP-1R; test: Functional cAMP activation in the presence of 0.1% casein (no HSA); conditions: read-out: Relative cAMP EC50, hGLP-1R;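 on Relative cAMP EC50, hGIPR: intracellular cAMP rise after 30 min at 37 °C read by HTRF against a standard curve, scaled between buffer alone (0%) and top control ligand concentration (100%), four-parameter fit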;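 on Relative cAMP EC50, hGLP-1R: intracellular cAMP rise after 30 min at 37 °C read by HTRF, normalized between buffer only (0%) and maximal control ligand (100%), four-parameter variable-slope fit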
human GcgR = human GcgR (Homo sapiens, UniProt P47871); test: Functional cAMP activity in the presence of 1% HSA; conditions: read-out: cAMP Rel EC50, hGcgR
hGIPR [4] = target: T2, hGIPR; test: Functional cAMP activation in the presence of 0.1% casein (no HSA); conditions: read-out: Relative cAMP EC50, hGIPR;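 on Relative cAMP EC50, hGIPR: intracellular cAMP rise after 30 min at 37 °C read by HTRF against a standard curve, scaled between buffer alone (0%) and top control ligand concentration (100%), four-parameter fit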;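 on Relative cAMP EC50, hGLP-1R: intracellular cAMP rise after 30 min at 37 °C read by HTRF, normalized between buffer only (0%) and maximal control ligand (100%), four-parameter variable-slope fit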
[5] = in the presence of 0.1% casein (no HSA), geometric mean

T1 sequence (P43220 24-463): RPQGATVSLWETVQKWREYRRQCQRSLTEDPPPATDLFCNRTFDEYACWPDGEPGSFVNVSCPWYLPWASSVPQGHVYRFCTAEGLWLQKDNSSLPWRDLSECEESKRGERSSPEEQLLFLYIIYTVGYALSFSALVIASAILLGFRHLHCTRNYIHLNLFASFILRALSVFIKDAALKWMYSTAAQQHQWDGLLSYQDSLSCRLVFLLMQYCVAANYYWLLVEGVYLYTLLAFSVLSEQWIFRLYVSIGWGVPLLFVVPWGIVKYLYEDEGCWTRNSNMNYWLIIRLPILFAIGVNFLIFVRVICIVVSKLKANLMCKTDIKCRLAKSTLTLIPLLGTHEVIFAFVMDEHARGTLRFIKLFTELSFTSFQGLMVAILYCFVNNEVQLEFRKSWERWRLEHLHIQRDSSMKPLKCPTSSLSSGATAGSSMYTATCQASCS
Chain of human GcgR (P47871 26-477): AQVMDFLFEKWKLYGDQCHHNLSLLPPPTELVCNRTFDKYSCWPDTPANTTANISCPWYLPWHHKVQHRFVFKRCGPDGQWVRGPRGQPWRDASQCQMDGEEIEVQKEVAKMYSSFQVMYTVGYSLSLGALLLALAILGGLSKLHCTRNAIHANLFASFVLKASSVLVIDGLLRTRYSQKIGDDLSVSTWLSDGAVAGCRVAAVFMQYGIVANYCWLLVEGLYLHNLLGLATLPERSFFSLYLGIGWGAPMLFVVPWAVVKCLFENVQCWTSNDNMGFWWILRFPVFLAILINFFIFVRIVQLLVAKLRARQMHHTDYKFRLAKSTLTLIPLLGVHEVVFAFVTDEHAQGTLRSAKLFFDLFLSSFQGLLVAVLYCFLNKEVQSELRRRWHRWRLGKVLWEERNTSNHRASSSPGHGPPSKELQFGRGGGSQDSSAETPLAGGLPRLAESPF
Chain of hGcgR (P47871 26-477): as above

| Molecule | pEC50 (hGcgR; [5]) | pEC50 (hGLP-1R [1]) | pEC50 (hGIPR [2]) | pEC50 (hGLP-1R [3]; [5]) | pEC50 (human GcgR) | pEC50 (hGIPR [4]; [5]) | pEC50 (hGcgR) | pEC50 (hGLP-1R [3]) | pEC50 (hGIPR [4]) |
| --- | --- | --- | --- | --- | --- | --- | --- | --- | --- |
| Y[Aib]QGTFTSD[4Pal]SQ[αMeL]LDKK([AEEA-γGlu-C18 diacid])AQ[αMe4Pal]AFIEYLIE[dA]GPSSGAPPPSGS-NH2 [Example 829] | 8.62 | 6.89 | 7.65 | 8.94 | 6.49 | 9.91 | – | – | – |
| H-Y[Aib]QGT[αMePhe(2-F)]TSD[4Pal]SI[αMeL]LD[Orn]K([AEEA-γGlu-C18 diacid])AQ[αMe4Pal][Orn]FI[dE][αMeY]LIEGGPSSGEPPPESE-NH2 [Example 677] | – | 7.68 | 8.99 | – | 6.72 | – | 8.66 | 9.60 | 10.95 |
| Y[Aib]QGT[αMePhe(2-F)]TSD[4Pal][αMeS]I[αMeL]LD[Orn]K([AEEA-γGlu-C18 diacid])AQ[αMe4Pal]EFI[dE][αMeY]LVEGGPSSGAPPPSGGGE-NH2 [Example 769] | – | 7.47 | 8.99 | – | 6.57 | – | 8.88 | 9.61 | 11.07 |
| H-Y[Aib]QGT[αMePhe(2-F)]TSD[4Pal][αMeS]I[αMeL]LD[Orn]K([γGlu-γGlu-C18 diacid])AQ[αMe4Pal]EFI[dE][αMeY]LVEGGPSSGEPPPSGSE-NH2 [Example 1163] | 8.76 | 7.45 | 9.14 | 9.35 | 6.79 | 11.02 | – | – | – |
| H-Y[Aib]QGTFTSDYSI[αMeL]LDKQAAK([AEEA-AEEA-γGlu-C20 diacid])AFVEWLLA[Aib]GPSSGEPPPSEG-NH2 [Example 317] | 8.62 | 6.63 | 7.20 | 8.88 | 5.82 | 9.32 | – | – | – |
| CC[C@H](C)[C@H](NC(=O)[C@H](Cc1ccccc1)NC(=O)[C@H](C)NC(=O)C(C)(C)NC(=O)[C@H](CCC(N)=O)NC(=O)[C@H](C)NC(=O)[C@H](CCCCNC(=O)COCCOCCNC(=O)CC[C@H](NC(=O)CCCCCCCCCCCCCCCCC(=O)O)C(=O)O)NC(=O)[C@H](CCCN)NC(=O)[C@H](CC(=O)O)NC(=O)[C@H](CC(C)C)NC(=O)[C@](C)(CC(C)C)NC(=O)[C@@H](NC(=O)[C@](C)(CO)NC(=O)[C@H](Cc1ccncc1)NC(=O)[C@H](CC(=O)O)NC(=O)[C@H](CO)NC(=O)[C@@H](NC(=O)[C@](C)(Cc1ccccc1F)NC(=O)[C@@H](NC(=O)CNC(=O)[C@H](CCC(N)=O)NC(=O)C(C)(C)NC(=O)[C@@H](N)Cc1c[nH]cn1)[C@@H](C)O)[C@@H](C)O)[C@@H](C)CC)C(=O)N[C@H](CCC(=O)O)C(=O)N[C@@H](Cc1ccc(O)cc1)C(=O)N[C@@H](CC(C)C)C(=O)N[C@@H](CC(C)C)C(=O)N[C@@H](CCC(=O)O)C(=O)NCC(=O)NCC(=O)N1CCC[C@H]1C(=O)N[C@@H](CO)C(=O)N[C@@H](CO)C(=O)NCC(=O)N[C@@H](CCC(=O)O)C(=O)N1CCC[C@H]1C(=O)N[C@@H](CCC(=O)O)C(=O)N1CCC[C@H]1C(=O)N[C@@H](CCC(=O)O)C(N)=O [Example 479] (H-H[Aib]QGT[αMePhe(2-F)]TSD[4Pal][αMeS]I[αMeL]LD[Orn]K([AEEA-γGlu-C18 diacid])AQ[Aib]AFI[dE]YLLEGGPSSGEPEPE-NH2) | – | 7.63 | 8.15 | – | 6.36 | – | 8.22 | 9.50 | 10.04 |
| CC[C@H](C)[C@H](NC(=O)[C@H](CC(C)C)NC(=O)[C@H](Cc1ccc(O)cc1)NC(=O)[C@H](CCC(=O)O)NC(=O)[C@@H](NC(=O)[C@H](Cc1ccccc1)NC(=O)[C@H](C)NC(=O)[C@](C)(Cc1ccncc1)NC(=O)[C@H](CCC(N)=O)NC(=O)[C@H](C)NC(=O)[C@H](CCCCNC(=O)COCCOCCNC(=O)CC[C@H](NC(=O)CCCCCCCCCCCCCCCCC(=O)O)C(=O)O)NC(=O)[C@H](CCCCN)NC(=O)[C@H](CC(=O)O)NC(=O)[C@H](CC(C)C)NC(=O)[C@](C)(CC(C)C)NC(=O)[C@H](CCC(N)=O)NC(=O)[C@H](CO)NC(=O)[C@H](Cc1ccncc1)NC(=O)[C@H](CC(=O)O)NC(=O)[C@H](CO)NC(=O)[C@@H](NC(=O)[C@H](Cc1ccccc1)NC(=O)[C@@H](NC(=O)CNC(=O)[C@H](CCC(N)=O)NC(=O)C(C)(C)NC(=O)[C@@H](N)Cc1ccc(O)cc1)[C@@H](C)O)[C@@H](C)O)[C@@H](C)CC)C(=O)N[C@@H](C)C(=O)NCC(=O)NCC(=O)N1CCC[C@H]1C(=O)N[C@@H](CO)C(=O)N[C@@H](CO)C(=O)NCC(=O)N[C@@H](C)C(=O)N1CCC[C@H]1C(=O)N1CCC[C@H]1C(=O)N1CCC[C@H]1C(=O)N[C@@H](CO)C(=O)NCC(=O)N[C@@H](CO)C(N)=O [Example 827] | 8.37 | 7.27 | 7.71 | 9.23 | 6.37 | 9.92 | – | – | – |
| H-Y[Aib]QGT[αMePhe(2-F)]TSD[4Pal]SILLD[Orn]K([γGlu-γGlu-C18 diacid])AQ[Aib][Orn]FIEYLQEGGPSSGAPPPSGTEE-NH2 [Example 582] | – | 7.45 | 7.97 | – | 5.97 | – | 7.98 | 9.53 | 9.99 |
| H-Y[Aib]QGTFTSD[4Pal]SQ[αMeL]LDKK([AEEA-γGlu-C18 diacid])AQ[αMe4Pal]AFIEYLIE[Aib]GPSSGAPPPSGSE-NH2 [Example 886] | 8.38 | 6.57 | 7.58 | 8.57 | 6.27 | 9.83 | – | – | – |
